Data as given in patent publication US9604964B2, “Dihydropyrazole GPR40 modulators” (BRISTOL-MYERS SQUIBB COMPANY, priority 2012, dated 2017).

Target: human GPR40 (Homo sapiens, UniProt O14842)
Assay: FDSS-based intracellular calcium assay (Human GPR40 in vitro assay)
Assay type: cell-based
Parameters: 3xFLAG; expressed in transfected cells
Conditions: intracellular Ca2+ response, cells expressing GPR40; read-out: hGPR40 EC50
Method: FDSS-based Intracellular Calcium Assay
Compounds are dissolved in DMSO and diluted to desired concentrations with assay buffer and added to the cells as 3× solution (20 μL per well). Run fluorescence/luminescence reader FDSS (Hamamatsu) to read intracellular Ca^2+ response.

Sequence of human GPR40 (O14842 whole entry): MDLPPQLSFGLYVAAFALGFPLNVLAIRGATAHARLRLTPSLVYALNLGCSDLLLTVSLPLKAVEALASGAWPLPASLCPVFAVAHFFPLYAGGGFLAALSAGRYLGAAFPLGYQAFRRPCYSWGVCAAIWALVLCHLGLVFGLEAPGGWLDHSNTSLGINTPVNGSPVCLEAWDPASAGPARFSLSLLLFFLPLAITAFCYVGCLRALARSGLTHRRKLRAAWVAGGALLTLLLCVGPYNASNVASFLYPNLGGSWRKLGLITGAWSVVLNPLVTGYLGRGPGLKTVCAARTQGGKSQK

| EC50 [µM] | SMILES |
| --- | --- |
| 0.517 | COc1cc(N2CCC(Cc3ccc(N4N=C(C(F)(F)F)[C@@H](C)[C@@H]4CC(=O)O)cc3)CC2)c(Cl)cn1 [Example B10, 2-((4S,5S)-1-(4-((1-(5-chloro-2-methoxypyridin-4-yl)piperidin-4-yl)methyl)phenyl)-4-methyl-3-(trifluoromethyl)-4,5-dihydro-1H-pyrazol-5-yl)acetic acid] |
| 7.38 | C[C@@H]1C(C(F)(F)F)=NN(c2ccc(CC3C4CCC3CN(C(=O)OCc3ccccc3)C4)cc2)[C@H]1CC(=O)O (stereo partly drawn) [Example B11, 2-((4S,5S)-1-(4-(((1R,5S,8S)-3-((benzyloxy)carbonyl)-3-azabicyclo[3.2.1]octan-8-yl)methyl)phenyl)-4-methyl-3-(trifluoromethyl)-4,5-dihydro-1H-pyrazol-5-yl)acetic acid] |
| 5.72 | COc1cccc(N2CC3CCC(C2)C3Cc2ccc(N3N=C(C(F)(F)F)[C@@H](C)[C@@H]3CC(=O)O)cc2)c1 (stereo partly drawn) [Example B12, 2-((4S,5S)-1-(4-(((1R,5S,8S)-3-(3-methoxyphenyl)-3-azabicyclo[3.2.1]octan-8-yl)methyl)phenyl)-4-methyl-3-(trifluoromethyl)-4,5-dihydro-1H-pyrazol-5-yl)acetic acid] |
| 2.2 | COc1cc(N2CC3CCC(C2)C3Cc2ccc(N3N=C(C(F)(F)F)[C@@H](C)[C@@H]3CC(=O)O)cc2)c(Cl)cn1 (stereo partly drawn) [Example B13, 2-((4S,5S)-1-(4-(((1R,5S,8S)-3-(5-chloro-2-methoxypyridin-4-yl)-3-azabicyclo[3.2.1]octan-8-yl)methyl)phenyl)-4-methyl-3-(trifluoromethyl)-4,5-dihydro-1H-pyrazol-5-yl)acetic acid] |
| 0.569 | C[C@@H]1C(C(F)(F)F)=NN(c2ccc(OC3CCN(c4cc5c(cc4Cl)OCO5)CC3)cc2)[C@H]1CC(=O)O [Example B14, 2-((4S,5S)-1-(4-((1-(6-Chlorobenzo[d] [1,3]dioxol-5-yl)piperidin-4-yl)oxy)phenyl)-4-methyl-3-(trifluoromethyl)-4,5-dihydro-1H-pyrazol-5-yl)acetic acid] |
| 0.325 | C[C@@H]1C(C(F)(F)F)=NN(c2ccc(OC3CCN(c4cc5c(cc4Cl)OCCO5)CC3)cc2)[C@H]1CC(=O)O [Example B15, 2-((4S,5S)-1-(4-((1-(7-Chloro-2,3-dihydrobenzo[b][1,4]dioxin-6-yl)piperidin-4-yl)oxy)phenyl)-4-methyl-3-(trifluoromethyl)-4,5-dihydro-1H-pyrazol-5-yl)acetic acid] |
| 1.1 | Cc1nc(C)c(N2CCC(Oc3ccc(N4N=C(C(F)(F)F)[C@@H](C)[C@@H]4CC(=O)O)cc3)CC2)s1 [Example B16, 2-((4S,5S)-1-(4-((1-(2,4-Dimethylthiazol-5-yl)piperidin-4-yl)oxy)phenyl)-4-methyl-3-(trifluoromethyl)-4,5-dihydro-1H-pyrazol-5-yl)acetic acid] |
| 2.49 | C[C@@H]1C(C(F)(F)F)=NN(c2ccc(OC3CCN(c4cc(-c5ncco5)ccc4F)CC3)cc2)[C@H]1CC(=O)O [Example B17, 2-((4S,5S)-1-(4-((1-(2-Fluoro-5-(oxazol-2-yl)phenyl)piperidin-4-yl)oxy)phenyl)-4-methyl-3-(trifluoromethyl)-4,5-dihydro-1H-pyrazol-5-yl)acetic acid] |
| 5.2 | Cc1nc2ccc(N3CCC(Oc4ccc(N5N=C(C(F)(F)F)[C@@H](C)[C@@H]5CC(=O)O)cc4)CC3)cc2o1 [Example B18, 2-((4S,5S)-4-Methyl-1-(4-((1-(2-methylbenzo[d]oxazol-6-yl)piperidin-4-yl)oxy)phenyl)-3-(trifluoromethyl)-4,5-dihydro-1H-pyrazol-5-yl)acetic acid] |
| 6.2 | C[C@@H]1C(C(F)(F)F)=NN(c2ccc(OC3CCN(c4cccc5c4OCCO5)CC3)cc2)[C@H]1CC(=O)O [Example B19, 2-((4S,5S)-1-(4-((1-(2,3-Dihydrobenzo[b][1,4]dioxin-5-yl)piperidin-4-yl)oxy)phenyl)-4-methyl-3-(trifluoromethyl)-4,5-dihydro-1H-pyrazol-5-yl)acetic acid] |
| 4.59 | C[C@@H]1C(C(F)(F)F)=NN(c2ccc(OC3CCN(c4cc(-n5cccn5)ccc4F)CC3)cc2)[C@H]1CC(=O)O [Example B20, 2-((4S,5S)-1-(4-((1-(2-Fluoro-5-(1H-pyrazol-1-yl)phenyl)piperidin-4-yl)oxy)phenyl)-4-methyl-3-(trifluoromethyl)-4,5-dihydro-1H-pyrazol-5-yl)acetic acid] |
| 7.95 | C[C@@H]1C(C(F)(F)F)=NN(c2ccc(OC3CCN(S(=O)(=O)c4ccccc4C#N)CC3)cc2)[C@H]1CC(=O)O [Example B21] |
| 1.33 | C[C@@H]1C(C(F)(F)F)=NN(c2ccc(OC3CCN(S(=O)(=O)C4CCCCC4)CC3)cc2)[C@H]1CC(=O)O [Example B22, 2-((4S,5S)-1-(4-((1-(cyclohexylsulfonyl)piperidin-4-yl)oxy)phenyl)-4-methyl-3-(trifluoromethyl)-4,5-dihydro-1H-pyrazol-5-yl)acetic acid] |
| 2 | CC(C)CS(=O)(=O)N1CCC(Oc2ccc(N3N=C(C(F)(F)F)[C@@H](C)[C@@H]3CC(=O)O)cc2)CC1 [Example B23, 2-((4S,5S)-1-(4-((1-(isobutylsulfonyl)piperidin-4-yl)oxy)phenyl)-4-methyl-3-(trifluoromethyl)-4,5-dihydro-1H-pyrazol-5-yl)acetic acid] |
| 3.6 | C[C@@H]1C(C(F)(F)F)=NN(c2ccc(OC3CCN(S(=O)(=O)C4CCCC4)CC3)cc2)[C@H]1CC(=O)O [Example B24, 2-((4S,5S)-1-(4-((1-(Cyclopentylsulfonyl)piperidin-4-yl)oxy)phenyl)-4-methyl-3-(trifluoromethyl)-4,5-dihydro-1H-pyrazol-5-yl)acetic acid] |
| 4.42 | C[C@@H]1C(C(F)(F)F)=NN(c2ccc(OC3CCN(S(=O)(=O)c4ccccc4C(F)(F)F)CC3)cc2)[C@H]1CC(=O)O [Example B25, 2-((4S,5S)-4-Methyl-3-(trifluoromethyl)-1-(4-((1-((2-(trifluoromethyl)phenyl)sulfonyl)piperidin-4-yl)oxy)phenyl)-4,5-dihydro-1H-pyrazol-5-yl)acetic acid] |
| 4.85 | Cc1ccccc1S(=O)(=O)N1CCC(Oc2ccc(N3N=C(C(F)(F)F)[C@@H](C)[C@@H]3CC(=O)O)cc2)CC1 [Example B27, 2-((4S,5S)-4-Methyl-1-(4-((1-(o-tolylsulfonyl)piperidin-4-yl)oxy)phenyl)-3-(trifluoromethyl)-4,5-dihydro-1H-pyrazol-5-yl)acetic acid] |
| 5.27 | COc1ccnc(N2CCC(Oc3ccc(N4N=C(C(F)(F)F)[C@@H](C)[C@@H]4CC(=O)O)cc3)CC2)n1 [Example B28, 2-((4S,5S)-1-(4-((1-(4-methoxypyrimidin-2-yl)piperidin-4-yl)oxy)phenyl)-4-methyl-3-(trifluoromethyl)-4,5-dihydro-1H-pyrazol-5-yl)acetic acid] |
| 3.68 | COc1nc(N2CCC(Oc3ccc(N4N=C(C(F)(F)F)[C@@H](C)[C@@H]4CC(=O)O)cc3)CC2)ncc1F [Example B29, 2-((4S,5S)-1-(4-((1-(5-Fluoro-4-methoxypyrimidin-2-yl)piperidin-4-yl)oxy)phenyl)-4-methyl-3-(trifluoromethyl)-4,5-dihydro-1H-pyrazol-5-yl)acetic acid] |
